One experiment concerns the target T1, human CB2 (hCB2) (Homo sapiens, UniProt P34972).
T1 construct: (cDNA clone) CNR0200000
Kind of experiment: 35S GTPγS binding assay, hCB2 agonist. The class given is biochemical. The gist of the method:
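Membranes (5 μg) from cells transfected with hCB2 cDNA in pcDNA3.1+ incubated with SPA beads, 0.1 nM [35S]GTPγS and 20 uM GDP in 50 mM HEPES pH 7.4, 100 mM NaCl, 5 mM MgCl2, 0.001% saponin, ± test compound. Incubation 90 min at room temperature; bound label read by scintillation counting.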

A further experiment concerns the target T2, human CB1 receptors (Homo sapiens, UniProt P21554).
T2 construct: (cDNA clone) CNR01L000
The experiment can be described thus: cAMP assay in HEK-293 cells, hCB1 agonist. The class given is cell-based. The gist of the method: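 Stable hCB1 HEK-293 cells suspended in HBSS with 10 mM HEPES and 0.1% fatty acid-free BSA, incubated 30 min at 37° C. with compound plus forskolin (90 uM in the 3× compound solution). Lysed cAMP measured by enzyme-fragment kit; EC50 = 50% inhibition of forskolin-stimulated cAMP (forskolin maximum = 100%), sigmoidal fit.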

The target in experiment [1] is T3, recombinant human cannabinoid receptor CB2 (Homo sapiens, UniProt P34972).
T3 construct: (cDNA clone) CNR0200000
Kind of experiment: Cannabinoid receptor radioligand binding assay, [3H]-CP 55,940 displacement, hCB2. Put shortly:
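Membranes from hCB2-transfected cells, prepared by 1000×g then 40,000×g centrifugation, resuspended in 20 mM HEPES pH 7.4, 5 mM MgCl2, 1 mM EDTA, 10% sucrose.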

A further experiment deals with T4, human CB2 receptors (Homo sapiens, UniProt P34972).
T4 construct: (cDNA clone) CNR0200000
Kind of experiment: cAMP assay in HEK-293 cells, hCB2 agonist. Type of experiment: cell-based. The gist of the method:
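HEK-293 cells stably expressing human CB2, suspended at 1,500,000 cells/mL in HBSS with 10 mM HEPES and 0.1% fatty-acid-free BSA, exposed to test compound plus forskolin (90 uM in the 3× compound solution) for 30 min at 37° C.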

Setting [2] is: inhibition of forskolin-stimulated cAMP, HEK-293 cells.
[3] abbreviates: inhibition of forskolin-stimulated cAMP, HEK-293 cells, read-out: hCB1 EC50 (cAMP ag).

The structures appear in SMILES notation. Read-outs that look alike come from different tables or passages of the source.

T3 sequence (P34972 whole entry): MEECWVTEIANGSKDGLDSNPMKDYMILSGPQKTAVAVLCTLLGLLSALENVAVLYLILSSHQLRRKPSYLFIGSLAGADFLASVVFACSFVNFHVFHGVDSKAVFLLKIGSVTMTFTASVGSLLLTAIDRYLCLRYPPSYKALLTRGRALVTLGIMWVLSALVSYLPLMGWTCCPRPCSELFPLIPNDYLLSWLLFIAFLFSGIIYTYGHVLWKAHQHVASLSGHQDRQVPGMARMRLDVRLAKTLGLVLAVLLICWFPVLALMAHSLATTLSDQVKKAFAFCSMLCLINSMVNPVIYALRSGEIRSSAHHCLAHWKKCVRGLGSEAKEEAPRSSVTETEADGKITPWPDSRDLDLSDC
T1 sequence (P34972 whole entry): as above
T4 sequence (P34972 whole entry): as above
T2 sequence (P21554 whole entry): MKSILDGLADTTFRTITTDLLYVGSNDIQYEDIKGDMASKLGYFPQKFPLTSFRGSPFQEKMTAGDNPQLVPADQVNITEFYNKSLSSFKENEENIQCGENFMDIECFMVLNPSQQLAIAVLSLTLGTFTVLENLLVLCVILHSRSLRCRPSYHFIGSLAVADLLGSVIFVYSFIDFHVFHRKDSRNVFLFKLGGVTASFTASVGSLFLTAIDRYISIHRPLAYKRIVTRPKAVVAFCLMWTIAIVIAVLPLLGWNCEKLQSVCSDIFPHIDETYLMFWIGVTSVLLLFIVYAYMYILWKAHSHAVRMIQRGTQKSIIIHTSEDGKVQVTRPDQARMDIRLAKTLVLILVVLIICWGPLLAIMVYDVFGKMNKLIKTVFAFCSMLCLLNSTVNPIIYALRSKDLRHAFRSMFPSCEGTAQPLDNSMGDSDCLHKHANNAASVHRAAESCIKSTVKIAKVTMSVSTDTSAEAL

Regarding `C=Cn1c(C)cc2cc(C(=O)c3cccc(Cl)c3Cl)sc21` [Comp 29], the EC50 at human CB2 (hCB2) and on human CB2 receptors was 100 to 1000 nM each time. Besides, at human CB1 receptors (setting [2]), the “hCB1 EC50 (cAMP ag, nM)” value is “NS (NS means “Not Significant,” which means less than 30% agonist activity when compared to the positive control.)”. In experiment [1], the IC50 was 1000 to 10000 nM.
On to `Cc1cc2cc(C(=O)c3cccc(Cl)c3Cl)sc2n1CCN1CCOCC1` [Compound 1, (2,3-dichlorophenyl)(5-methyl-6-(2-morpholinoethyl)-6H-thieno[2,3-b]pyrrol-2-yl)methanone], for which the EC50 is less than 100 nM on human CB2 (hCB2), more than 10000 nM at human CB1 receptors (setting [3]) and less than 100 nM at human CB2 receptors. Also, the IC50 in experiment [1] is less than 100 nM.
Take `CCCn1c(C)cc2cc(C(=O)c3cccc(Cl)c3Cl)sc21` [Compound 3, (2,3-Dichlorophenyl)(5-methyl-6-propyl-6H-thieno[2,3-b]pyrrol-2-yl)methanone]: the EC50 on human CB2 (hCB2) and on human CB2 receptors was less than 100 nM throughout. Also, the “hCB1 EC50 (cAMP ag, nM)” value on human CB1 receptors (setting [2]) is given as “NS (NS means “Not Significant,” which means less than 30% agonist activity when compared to the positive control.)”. Moreover, in experiment [1], the IC50 is 100 to 1000 nM.
For `Cc1cc2cc(C(=O)c3ccccc3Cl)sc2n1CCN1CCOCC1` [Compound 5, (2-Chlorophenyl)(5-methyl-6-(2-morpholinoethyl)-61-1-thieno[2,3-b]pyrrol-2-yl)methanone], the results for the EC50 on human CB2 (hCB2), at human CB1 receptors (setting [3]) and at human CB2 receptors were less than 100 nM, 100 to 1000 nM and less than 100 nM, respectively. In experiment [1], the concentration for half-maximal inhibition (IC50) is less than 100 nM.
In the case of `Cc1cc2cc(C(=O)c3ccc(Cl)cc3)sc2n1CCN1CCOCC1` [Compound 6, (4-Chlorophenyl)(5-methyl-6-(2-morpholinoethyl)-6H-thieno[2,3-b]pyrrol-2-yl)methanone], the EC50 at human CB2 (hCB2) and on human CB2 receptors was less than 100 nM in each case. For the same molecule, the “hCB1 EC50 (cAMP ag, nM)” value at human CB1 receptors (setting [2]) is “NS (NS means “Not Significant,” which means less than 30% agonist activity when compared to the positive control.)”. Further, in experiment [1], the IC50 was in the range of 100 to 1000 nM.
For the molecule `Cc1cc2cc(C(=O)c3cccc(F)c3F)sc2n1CCN1CCOCC1` [Compound 8, (2,3-Difluorophenyl)(5-methyl-6-(2-morpholinoethyl)-6H-thieno[2,3-b]pyrrol-2-yl)methanone], the EC50 is 100 to 1000 nM on human CB2 (hCB2) and less than 100 nM at human CB2 receptors. In addition, the “hCB1 EC50 (cAMP ag, nM)” value at human CB1 receptors (setting [2]) was “NS (NS means “Not Significant,” which means less than 30% agonist activity when compared to the positive control.)”. Besides, in experiment [1], the IC50 was in the range of 100 to 1000 nM.
As for `Cc1cc2cc(C(=O)c3ccc(Cl)c(Cl)c3)sc2n1CCN1CCOCC1` [Compound 9, (3,4-Dichlorophenyl)(5-methyl-6-(2-morpholinoethyl)-6H-thieno[2,3-b]pyrrol-2-yl)methanone], the EC50 on human CB2 (hCB2) fell in the range of 1000 to 10000 nM; on human CB2 receptors, 100 to 1000 nM. Besides, the “hCB1 EC50 (cAMP ag, nM)” value at human CB1 receptors (setting [2]) is reported as “NS (NS means “Not Significant,” which means less than 30% agonist activity when compared to the positive control.)”. Further, the IC50 in experiment [1] lay in the range of 100 to 1000 nM.
In the case of `Cc1cc2cc(C(=O)c3cccc4c3OCC4)sc2n1CCN1CCOCC1` [Compound 11, (2,3-Dihydrobenzofuran-7-yl)(5-methyl-6-(2-morpholinoethyl)-6H-thieno[2,3-b]pyrrol-2-yl)methanone], the EC50 at human CB2 (hCB2) was less than 100 nM; at human CB1 receptors (setting [3]), 100 to 1000 nM; at human CB2 receptors, less than 100 nM. Further, in experiment [1], the IC50 lay in the range of 100 to 1000 nM.
With `COc1ccccc1C(=O)c1cc2cc(C)n(CCN3CCOCC3)c2s1` [Compound 13, (2-Methoxyphenyl)(5-methyl-6-(2-morpholinoethyl)-6H-thieno[2,3-b]pyrrol-2-yl)methanone], the figures for the EC50 on human CB2 (hCB2), at human CB1 receptors (setting [3]) and at human CB2 receptors were less than 100 nM, 100 to 1000 nM and less than 100 nM, respectively. For the same molecule, the IC50 in experiment [1] is less than 100 nM.
As to `Cc1cc2cc(C(=O)c3ccccc3OC(F)(F)F)sc2n1CCN1CCOCC1` [Compound 15, (5-Methyl-6-(2-morpholinoethyl)-6H-thieno[2,3-b]pyrrol-2-yl)(2-(trifluoromethoxy)phenyl)methanone], the EC50 is less than 100 nM on human CB2 (hCB2), 100 to 1000 nM on human CB1 receptors (setting [3]) and less than 100 nM at human CB2 receptors. In addition, the IC50 in experiment [1] was less than 100 nM.
Take `Cc1cc2cc(C(=O)c3cccnc3Cl)sc2n1CCN1CCOCC1` [Compound 17, (2-Chloropyridin-3-yl)(5-methyl-6-(2-morpholinoethyl)-6H-thieno[2,3-b]pyrrol-2-yl)methanone]: the EC50 is 100 to 1000 nM at human CB2 (hCB2) and less than 100 nM on human CB2 receptors. The “hCB1 EC50 (cAMP ag, nM)” value on human CB1 receptors (setting [2]) was “NS (NS means “Not Significant,” which means less than 30% agonist activity when compared to the positive control.)”. Moreover, in experiment [1], the IC50 lay within 100 to 1000 nM.
As to `Cc1cc2cc(C(=O)c3cccc(Cl)c3Cl)sc2n1CCC1CCOCC1` [Compound 18, (2,3-Dichlorophenyl)(5-methyl-6-(2-(tetrahydro-2H-pyran-4-yl)ethyl)-6H-thieno[2,3-b]pyrrol-2-yl)methanone], the EC50 is less than 100 nM on human CB2 (hCB2), 100 to 1000 nM on human CB1 receptors (setting [3]) and less than 100 nM on human CB2 receptors. In experiment [1], the IC50 was less than 100 nM.
On to `COCCn1c(C)cc2cc(C(=O)c3cccc(Cl)c3Cl)sc21` [Compound 21, (2,3-Dichlorophenyl)(6-(2-methoxyethyl)-5-methyl-6H-thieno[2,3-b]pyrrol-2-yl)methanone], for which the EC50 is less than 100 nM on human CB2 (hCB2), 1000 to 10000 nM at human CB1 receptors (setting [3]) and less than 100 nM on human CB2 receptors. In addition, in experiment [1], the IC50 lay in the range of 100 to 1000 nM.
Regarding `Cc1cc2cc(C(=O)c3cccc(Cl)c3Cl)sc2n1CCN1CCCCC1` [Compound 23, (2,3-Dichlorophenyl)(5-methyl-6-(2-(piperidin-1-yl)ethyl)-6H-thieno[2,3-b]pyrrol-2-yl)methanone], the EC50 at human CB2 (hCB2) and at human CB2 receptors was less than 100 nM each time. Further, the “hCB1 EC50 (cAMP ag, nM)” value on human CB1 receptors (setting [2]) is on record as “NS (NS means “Not Significant,” which means less than 30% agonist activity when compared to the positive control.)”. Also, the IC50 in experiment [1] was less than 100 nM.
Consider `Cc1cc2cc(C(=O)c3cccc(Cl)c3Cl)sc2n1CC1CCCCN1C` (stereo not drawn) [Compound 24, (2,3-Dichlorophenyl)(5-methyl-6((1-methylpiperidin-2-yl)methyl)-6H-thieno[2,3-b]pyrrol-2-yl)methanone], for which the EC50 at human CB2 (hCB2) and on human CB2 receptors was less than 100 nM throughout. The “hCB1 EC50 (cAMP ag, nM)” value at human CB1 receptors (setting [2]) was “NS (NS means “Not Significant,” which means less than 30% agonist activity when compared to the positive control.)”. In experiment [1], the IC50 is less than 100 nM.
On to `Cc1c(Cl)c2cc(C(=O)c3cccc(Cl)c3Cl)sc2n1CCN1CCOCC1` [Compound 27, (4-chloro-5-methyl-6-(2-morpholinoethyl)-6H-thieno[2,3-b]pyrrol-2-yl)(2,3-dichlorophenyl)methanone], for which the EC50 on human CB2 (hCB2) is less than 100 nM; on human CB1 receptors it was 100 to 1000 nM; on human CB2 receptors, less than 100 nM. Moreover, the 50% inhibitory concentration (IC50) in experiment [1] was less than 100 nM.
Regarding `Cc1cc2cc(C(=O)c3cccc(Cl)c3Cl)sc2n1CCN1CCCC1` [Compound 28, (2,3-Dichlorophenyl)(5-methyl-6-(2-(pyrrolidin-1-yl)ethyl)-6H-thieno[2,3-b]pyrrol-2-yl)methanone], the EC50 at human CB2 (hCB2) and on human CB2 receptors was less than 100 nM in each case. On human CB1 receptors (setting [2]), the “hCB1 EC50 (cAMP ag, nM)” value is reported as “NS (NS means “Not Significant,” which means less than 30% agonist activity when compared to the positive control.)”. Besides, the IC50 in experiment [1] was less than 100 nM.
With `Cc1cc2cc(C(=O)c3cc(Cl)ccc3Cl)sc2n1CCN1CCOCC1` [Compound 35, (2,5-Dichlorophenyl)(5-methyl-6-(2-morpholinoethyl)-6H-thieno[2,3-b]pyrrol-2-yl)methanone], the EC50 on human CB2 (hCB2) and on human CB2 receptors was less than 100 nM each time. Further, the “hCB1 EC50 (cAMP ag, nM)” value on human CB1 receptors (setting [2]) is given as “NS (NS means “Not Significant,” which means less than 30% agonist activity when compared to the positive control.)”. Further, the IC50 in experiment [1] is less than 100 nM.
As for `COCCN(C)CCn1c(C)cc2cc(C(=O)c3ccc(OC)nc3)sc21` [Compound 157], the EC50 on human CB2 (hCB2) was 1000 to 10000 nM; at human CB2 receptors it was less than 100 nM. The “hCB1 EC50 (cAMP ag, nM)” value on human CB1 receptors (setting [2]) is recorded as “NS (NS means “Not Significant,” which means less than 30% agonist activity when compared to the positive control.)”.
The matching figures for `COc1ccc(C(=O)c2cc3cc(C)n(CC(OC)OC)c3s2)cn1` [Compound 161, (6-(2,2-dimethoxyethyl)-5-methyl-6H-thieno[2,3-b]pyrrol-2-yl)(6-methoxypyridin-3-yl)methanone]: 1000 to 10000 nM, 100 to 1000 nM and “NS (NS means “Not Significant,” which means less than 30% agonist activity when compared to the positive control.)”.
As for `Cc1cc2cc(C(=O)c3ccc(O)cc3F)sc2n1CCN1CCOCC1` [Compound 165, (2-fluoro-4-hydroxyphenyl)(5-methyl-6-(2-morpholinoethyl)-6H-thieno[2,3-b]pyrrol-2-yl)methanone], the results for the EC50 at human CB2 (hCB2), at human CB1 receptors (setting [3]) and on human CB2 receptors were 100 to 1000 nM, 100 to 1000 nM and less than 100 nM, respectively.

For the origin of these results see patent publication US20130029970A1 (priority 2009, published 2013).
